Measured values reported in patent US20110190503A1, “Thiazolopyridin-2-yloxy-phenyl and thiazolopyrazin-2-yloxy-phenyl amines as modulators of leukotriene A4 hydrolase” (Janssen Pharmaceutical NV, priority 2008, published 2011).
Structures can show the parent of a compound that is named as a salt.

Each compound was assayed against T1, recombinant human LTA4 hydrolase (rhLTA4H) (Homo sapiens, UniProt P09960) (assay: Recombinant human LTA4 hydrolase assay for LTA4 hydrolase inhibitor activity). Details: rhLTA4H, LTA4 substrate, LTB4 by immunoassay; single determination or average; read-out: IC50.
T1 construct: made in house; host or cells: Spodoptera frugiperda (Sf-9) cells, recombinant baculovirus (pFastBac1)
T1 sequence (P09960 1-611): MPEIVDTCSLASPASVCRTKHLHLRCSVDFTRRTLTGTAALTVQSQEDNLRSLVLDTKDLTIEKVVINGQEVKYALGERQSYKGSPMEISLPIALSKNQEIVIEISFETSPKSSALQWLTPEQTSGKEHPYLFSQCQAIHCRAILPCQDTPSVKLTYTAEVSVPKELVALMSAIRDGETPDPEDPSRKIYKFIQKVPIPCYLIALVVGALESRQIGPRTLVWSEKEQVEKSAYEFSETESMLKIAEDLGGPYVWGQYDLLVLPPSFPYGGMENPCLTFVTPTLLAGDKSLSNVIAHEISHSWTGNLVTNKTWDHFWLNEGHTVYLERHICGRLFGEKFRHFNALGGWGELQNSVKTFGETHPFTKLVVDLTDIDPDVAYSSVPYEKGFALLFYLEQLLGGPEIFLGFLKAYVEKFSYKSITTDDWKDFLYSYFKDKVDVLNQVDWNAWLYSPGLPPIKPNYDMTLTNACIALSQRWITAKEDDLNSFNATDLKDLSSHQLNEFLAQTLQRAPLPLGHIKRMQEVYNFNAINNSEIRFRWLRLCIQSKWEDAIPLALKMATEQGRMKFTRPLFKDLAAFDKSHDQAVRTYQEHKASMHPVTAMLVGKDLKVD
Type: biochemical
Procedure, shortened: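 Recombinant human LTA4H from baculovirus-infected Sf-9 cells (10 ng) pre-incubated 10 min at rt with compound (10% DMSO in dilutions), then reacted with free-acid LTA4 for 30 min at rt. LTB4 measured by ELISA; IC50 by nonlinear regression. Values are single determinations or averages.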

| IC50 | SMILES |
| --- | --- |
| 26 nM | Cc1cnc2nc(Oc3ccc(CN4CCC(C(=O)N(C)C)CC4)cc3)sc2c1 [Example 172, N,N-Dimethyl-1-({4-[(6-methyl[1,3]thiazolo[4,5-b]pyridin-2-yl)oxy]phenyl}methyl)piperidine-4-carboxamide] |
| 835 nM | CC(=O)N1CCN(CCc2ccc(Oc3nc4ccncc4s3)cc2)CC1 [Example 176, 2-{4-[2-(4-Acetylpiperazin-1-yl)ethyl]phenoxy}[1,3]thiazolo[5,4-c]pyridine] |
| 350 nM | NC(=O)C1CCN(CCOc2ccc(Oc3nc4cccnc4s3)cc2)CC1 [Example 35, 1-{2-[4-([1,3]Thiazolo[5,4-b]pyridin-2-yloxy)phenoxy]ethyl}piperidine-4-carboxamide] |
| 35 nM | Cc1ccnc2nc(Oc3ccc(CN4CCC(NC(=O)c5ccncc5)CC4)cc3)sc12 [Example 206, N-(1-{4-[(7-Methyl[1,3]thiazolo[4,5-b]pyridin-2-yl)oxy]benzyl}piperidin-4-yl)pyridine-4-carboxamide] |
| 1210 nM | CC(=O)N1CCCN(Cc2ccc(Oc3nc4ccncc4s3)cc2)CC1 [Example 226, 2-{4-[(4-Acetyl-1,4-diazepan-1-yl)methyl]phenoxy}[1,3]thiazolo[5,4-c]pyridine] |
| 507 nM | O=C(NC1CCN(CCc2ccc(Oc3nc4ccncc4s3)cc2)CC1)C1CC1 [Example 192, N-(1-{2-[4-([1,3]Thiazolo[5,4-c]pyridin-2-yloxy)phenyl]ethyl}piperidin-4-yl)cyclopropanecarboxamide] |
| 310 nM | c1ccc2c(c1)CCCN2CCOc1ccc(Oc2nc3ncccc3s2)cc1 [Example 7, 1-{2-[4-([1,3]Thiazolo[4,5-b]pyridin-2-yloxy)phenoxy]ethyl}-1,2,3,4-tetrahydroquinoline] |
| 388 nM | O=C(Cc1cccs1)N1CCN(Cc2ccc(Oc3nc4nccnc4s3)cc2)CC1 [Example 173, 2-[(4-{[4-(2-Thienylacetyl)piperazin-1-yl]methyl}phenyl)oxy][1,3]thiazolo[4,5-b]pyrazine] |
| 367 nM | CS(=O)(=O)N1C[C@H]2C[C@@H]1CN2CCOc1ccc(Oc2nc3ccncc3s2)cc1 [Example 151, 2-(4-{2-[(1R,4R)-5-(Methylsulfonyl)-2,5-diazabicyclo[2.2.1]hept-2-yl]ethoxy}phenoxy)[1,3]thiazolo[5,4-c]pyridine] |
| 680 nM | c1cc2nc(Oc3ccc(CN4CCCCC4)cc3)sc2cn1 [Example 114, 2-[4-(Piperidin-1-ylmethyl)phenoxy][1,3]thiazolo[5,4-c]pyridine] |
| 576 nM | NCCCN(Cc1ccc(Oc2nc3ccncc3s2)cc1)CC1CC1 [Example 204, N-(Cyclopropylmethyl)-N-[4-([1,3]thiazolo[5,4-c]pyridin-2-yloxy)benzyl]propane-1,3-diamine hydrochloride] |
| 290 nM | O=C(c1cccs1)N1CCN(Cc2ccc(Oc3nc4ncc(Cl)cc4s3)cc2)CC1 [Example 187, 6-Chloro-2-[(4-{[4-(2-thienylcarbonyl)piperazin-1-yl]methyl}phenyl)oxy][1,3]thiazolo[4,5-b]pyridine] |
| 647 nM | Cc1ccnc2nc(Oc3ccc(CN4CCN(c5ccncc5)CC4)cc3)sc12 [Example 168, 7-Methyl-2-({4-[(4-pyridin-4-ylpiperazin-1-yl)methyl]phenyl}oxy)[1,3]thiazolo[4,5-b]pyridine] |
| 16 nM | c1ccc(CC2CCN(CCc3ccc(Oc4nc5ncccc5s4)cc3)CC2)cc1 [Example 63, 2-{4-[2-(4-Benzylpiperidin-1-yl)ethyl]phenoxy}[1,3]thiazolo[4,5-b]pyridine] |
| 21 nM | O=C(O)CCN1CCN(CCc2ccc(Oc3nc4ncccc4s3)cc2)CC1 [Example 225, 3-(4-{2-[4-([1,3]Thiazolo[4,5-b]pyridin-2-yloxy)phenyl]ethyl}piperazin-1-yl)propanoic acid hydrochloride] |
| 140 nM | OCC1CN(Cc2ccc(Oc3nc4ncccc4s3)cc2)CCO1 (stereo not shown) [Example 82, {4-[4-([1,3]Thiazolo[4,5-b]pyridin-2-yloxy)benzyl]morpholin-2-yl}methanol] |

| IC50 | SMILES |
| --- | --- |
| 4850 nM | CN1CCN(Cc2ccc(Oc3nc4cnccc4s3)cc2)CC1=O [Example 224, 1-Methyl-4-[4-([1,3]thiazolo[4,5-c]pyridin-2-yloxy)benzyl]piperazin-2-one] |
| 138 nM | Cc1cnc2nc(Oc3ccc(OCCN4CCC(NC(=O)C(C)C)CC4)cc3)sc2c1 [Example 140, 2-Methyl-N-[1-(2-{4-[(6-methyl[1,3]thiazolo[4,5-b]pyridin-2-yl)oxy]phenoxy}ethyl)piperidin-4-yl]propanamide] |
| 1090 nM | Cc1cnc2nc(Oc3ccc(CN4CCC(C(=O)N5CCNCC5)CC4)cc3)sc2c1 [Example 229, 6-Methyl-2-(4-{[4-(piperazin-1-ylcarbonyl)piperidin-1-yl]methyl}phenoxy)[1,3]thiazolo[4,5-b]pyridine hydrochloride] |
| 92 nM | CS(=O)(=O)N[C@@H]1CC2CC[C@@H](C1)N2CCc1ccc(Oc2nc3cccnc3s2)cc1 [Example 194, meso-N-[(3-exo)-8-{2-[4-([1,3]Thiazolo[5,4-b]pyridin-2-yloxy)phenyl]ethyl}-8-azabicyclo[3.2.1]oct-3-yl]methanesulfonamide] |
| 350 nM | O=C1CCCN1C1CCN(CCOc2ccc(Oc3nc4ccncc4s3)cc2)CC1 [Example 144, 1-(1-{2-[4-([1,3]Thiazolo[5,4-c]pyridin-2-yloxy)phenoxy]ethyl}piperidin-4-yl)pyrrolidin-2-one] |
| 498 nM | CN1CCCN(CCOc2ccc(Oc3nc4cccnc4s3)cc2)CC1 [Example 152, 2-{4-[2-(4-Methyl-1,4-diazepan-1-yl)ethoxy]phenoxy}[1,3]thiazolo[5,4-b]pyridine] |
| 140 nM | O=C1CCCN1C1CCN(CCOc2ccc(Oc3nc4cccnc4s3)cc2)CC1 [Example 43, 1-(1-{2-[4-([1,3]Thiazolo[5,4-b]pyridin-2-yloxy)phenoxy]ethyl}piperidin-4-yl)pyrrolidin-2-one] |
| 71 nM | FC1CCN(CCc2ccc(Oc3nc4nccnc4s3)cc2)CC1 [Example 180, 2-({4-[2-(4-Fluoropiperidin-1-yl)ethyl]phenyl}oxy)[1,3]thiazolo[4,5-b]pyrazine] |
| 920 nM | CC(=O)N1C[C@@H]2C[C@H]1CN2Cc1ccc(Oc2nc3nc(C)ccc3s2)cc1 [Example 126, 2-(4-{[(1S,4S)-5-Acetyl-2,5-diazabicyclo[2.2.1]hept-2-yl]methyl}phenoxy)-5-methyl[1,3]thiazolo[4,5-b]pyridine] |
| 329 nM | CN(CCCN1CCCC1=O)CCOc1ccc(Oc2nc3ncc(Cl)cc3s2)cc1 [Example 155, 1-{3-[(2-{4-[(6-Chloro[1,3]thiazolo[4,5-b]pyridin-2-yl)oxy]phenoxy}ethyl)(methyl)amino]propyl}pyrrolidin-2-one] |
| 293 nM | CN(CCN1CCCCC1)Cc1ccc(Oc2nc3ncccc3s2)cc1 [Example 271, N-Methyl-2-piperidin-1-yl-N-[4-([1,3]thiazolo[4,5-b]pyridin-2-yloxy)benzyl]ethanamine] |
| 660 nM | O=C(O)C1CCN(CCOc2ccc(Oc3nc4cccnc4s3)cc2)CC1 [Example 44, 1-{2-[4-([1,3]Thiazolo[5,4-b]pyridin-2-yloxy)phenoxy]ethyl}piperidine-4-carboxylic acid] |
| 190 nM | NC(=O)C1CCN(CCc2ccc(Oc3nc4cccnc4s3)cc2)CC1 [Example 67, 1-{2-[4-([1,3]Thiazolo[5,4-b]pyridin-2-yloxy)phenyl]ethyl}piperidine-4-carboxamide] |
| 157 nM | CC(=O)N1[C@@H]2CC[C@H]1CN(CCc1ccc(Oc3nc4nccc(C)c4s3)cc1)C2 [Example 209, meso-2-(4-{2-[8-Acetyl-3,8-diazabicyclo[3.2.1]oct-3-yl]ethyl}phenoxy)-7-methyl[1,3]thiazolo[4,5-b]pyridine] |
| 3740 nM | CC(=O)N1C[C@@H]2C[C@H]1CN2Cc1ccc(Oc2nc3ccc(C)nc3s2)cc1 [Example 118, 2-(4-{[(1S,4S)-5-Acetyl-2,5-diazabicyclo[2.2.1]hept-2-yl]methyl}phenoxy)-5-methyl[1,3]thiazolo[5,4-b]pyridine] |
